Laboratory results: publication PMC8401167, “Point Mutations and Cytochrome P450 Can Contribute to Resistance to ACCase-Inhibiting Herbicides in Three Phalaris Species” (Plants, 2021)
Where two headings read alike, the source gives them in different places.

Experiments:
Experiment in all cases: […]bicarbonate incorporation into malonyl-CoA
Assay type in all cases: biochemical
ACCase (Phalaris minor) = biological target: T1, ACCase (Phalaris minor); conditions: 1.5 mM ATP, 5 mM acetyl-CoA, 5 mM MgCl2, 15 mM NaH14CO3, pH 8.3, 34 °C, S biotype, read-out: I50
T1 construct: cytosolic form not separated

[1] = biological target: T2, ACCase (Phalaris brachystachys); conditions: 1.5 mM ATP, 5 mM acetyl-CoA, 5 mM MgCl2, 15 mM NaH14CO3, pH 8.3, 34 °C, R biotype (zygosity not given), stated gain, read-out: I50
T2 construct: cytosolic form not separated

[2] = biological target: T2, ACCase (Phalaris brachystachys); conditions: 1.5 mM ATP, 5 mM acetyl-CoA, 5 mM MgCl2, 15 mM NaH14CO3, pH 8.3, 34 °C, S biotype, read-out: I50
[3] = biological target: T3, ACCase (Phalaris paradoxa); conditions: 1.5 mM ATP, 5 mM acetyl-CoA, 5 mM MgCl2, 15 mM NaH14CO3, pH 8.3, 34 °C, S biotype, read-out: I50
T3 construct: cytosolic form not separated

[4] = table labels herbicide diclofop-methyl, methods say DM acid

CCCC(=NOCC)C1=C(O)CC(C2CCCSC2)CC1=O (stereo not drawn) [cycloxydim]
IC50 (ACCase (Phalaris minor)): 670 ± 910 nM
IC50 [1]: 2400 ± 340 nM
IC50 [2]: 220 ± 20 nM
IC50 [3]: 460 ± 60 nM

CC(Oc1ccc(Oc2ccc(Cl)cc2Cl)cc1)C(=O)O (stereo not drawn) [DM acid]
IC50 (ACCase (Phalaris minor); [4]): 850 ± 30 nM
IC50 [1, 4]: 6650 ± 780 nM
IC50 [2, 4]: 320 ± 50 nM
IC50 [3, 4]: 590 ± 230 nM

CCc1cc(C)cc(CC)c1-c1c(OC(=O)C(C)(C)C)n2n(c1=O)CCOCC2 [pinoxaden]
IC50 (ACCase (Phalaris minor)): 590 ± 70 nM
IC50 [1]: 14400 ± 1900 nM
IC50 [2]: 780 ± 10 nM
IC50 [3]: 660 ± 90 nM
